Test results as given in US9949478B2, “Herbicidal combination with herbicidal active fatty acids and an ALS-inhibitor” (BAYER CROPSCIENCE AKTIENGESELLSCHAFT, priority 2013, dated 2018).
Several values for one entry are separate records, joined by “and”; a condition that tells them apart may be missing. Equal entries are not always repeated.

What was measured:
Assay in all cases: Post-emergence test
Type in all cases: in vivo
Achillea millefolium = conditions: 34 days
From the text: (§1) The following formulations of the active compounds involved were used: • fatty acids 120 EC (fatty acid mixture of two fatty acids having hydrocarbon chains of 8 and 10 carbon atoms in a ratio of 60 to 40; for the preparation see EP application number 12177824.5; title: “Emulsifiable Concentrate Formulation with Herbicidal Active Fatty Acids); application date: Jul. 25, 2012). • foramsulfuron 50 WG (water dispersible granule) standard granule formulation without adjuvants • iodosulfuron 10 WG (water dispersible granule) • (commercial formulation Destiny, approved inter alia in Australia—Bayer CropScience) • mesosulfuron 75 WG (water dispersible granule) standard granule formulation without adjuvants • thiencarbazone 70 WG (water dispersible granule) standard granule formulation without adjuvants • flazasulfuron 25 WG (water dispersible granule) • (commercial formulation Chikara, approved inter alia in Germany—product licence holder ISK Biosciences) • amidosulfuron 75 WG (water dispersible granule) • (commercial formulation Hoestar, approved inter alia in Germany—Bayer CropScience) • ethoxysulfuron 60 WG (water dispersible granule) • (commercial formulation SunRice, approved inter alia in Italy—Bayer CropScience)
(§2) The active compound concentrations required for the tests were prepared by dilution with water. The tested active compound combinations were mixed shortly before their biological examination.
(§3) In the case of all herbicide combinations according to the invention, for most of the test plants synergistic actions are observed (see Tables 1 to 25).

Bellis perennis = conditions: 34 days
From the text: as §1, §2, §3

Chenopodium album = system: Chenopodium album
From the text: as §1, §2, §3

Festuca ovina = system: Festuca ovina
From the text: as §1, §2, §3

Lotus corniculatus = conditions: 34 days
From the text: as §1, §2, §3

Plantago lanceolata = conditions: 34 days
From the text: as §1, §2, §3

Plantago major = system: Plantago major
From the text: as §1, §2, §3

Ranunculus repens = conditions: 34 days
From the text: as §1, §2, §3

Rumex acetosa = conditions: 34 days
From the text: as §1, §2, §3

Stellaria media = conditions: 34 days
From the text: as §1, §2, §3

Taraxacum officinale = system: Taraxacum officinale
From the text: as §1, §2, §3

Trifolium repens = system: Trifolium repens
From the text: as §1, §2, §3

Poa annua = conditions: 48 days
From the text: as §1, §2, §3

[1] = 37.5 g of active compound/ha, 34 days
[2] = 30 g of active compound/ha, 34 days
[3] = 20 g of active compound/ha, 34 days
[4] = 1 g of active compound/ha, 48 days
[5] = 1.25 g of active compound/ha, 34 days
[6] = 1.25 g of active compound/ha, 48 days
[7] = 2.5 g of active compound/ha, 48 days
[8] = 10 g of active compound/ha, 48 days
[9] = 15 g of active compound/ha, 34 days
[10] = 15 g of active compound/ha, 48 days
[11] = 45 g of active compound/ha, 34 days
[12] = 45 g of active compound/ha, 48 days
[13] = 60 g of active compound/ha, 48 days
[14] = 60 g of active compound/ha, 34 days

SMILES: COc1cc(OC)nc(NC(=O)NS(=O)(=O)c2ncccc2C(F)(F)F)n1 [Flazasulfuron, 1-(4,6-dimethoxypyrimidin-2-yl)-3-(3-trifluoromethyl-2-pyridylsulfonyl)urea]
- herbicidal effect [%] (Achillea millefolium; 37.5 g of active compound/ha): 67%
- herbicidal effect [%] (Bellis perennis; 37.5 g of active compound/ha): 52%
- herbicidal effect [%] (Chenopodium album; [1]): 70%
- herbicidal effect [%] (Festuca ovina; [1]): 68%
- herbicidal effect [%] (Lotus corniculatus; 37.5 g of active compound/ha): 23%
- herbicidal effect [%] (Plantago lanceolata; 37.5 g of active compound/ha): 7%
- herbicidal effect [%] (Plantago major; [1]): 75%
- herbicidal effect [%] (Ranunculus repens; 37.5 g of active compound/ha): 99%
- herbicidal effect [%] (Rumex acetosa; 37.5 g of active compound/ha): 52%
- herbicidal effect [%] (Stellaria media; 37.5 g of active compound/ha): 95%
- herbicidal effect [%] (Taraxacum officinale; [1]): 87%
- herbicidal effect [%] (Trifolium repens; [1]): 63%

SMILES: COc1cc(OC)nc(NC(=O)NS(=O)(=O)N(C)S(C)(=O)=O)n1 [Amidosulfuron, 3-(4,6-dimethoxypyrimidin-2-yl)-1-(N-methyl-N-methylsulfonylaminosulfonyl)urea]
- herbicidal effect [%] (Achillea millefolium; 30 g of active compound/ha): 18%
- herbicidal effect [%] (Bellis perennis; 30 g of active compound/ha): 33%
- herbicidal effect [%] (Chenopodium album; [2]): 27%
- herbicidal effect [%] (Festuca ovina; [2]): 0%
- herbicidal effect [%] (Lotus corniculatus; 30 g of active compound/ha): 0%
- herbicidal effect [%] (Plantago lanceolata; 30 g of active compound/ha): 13%
- herbicidal effect [%] (Plantago major; [2]): 88%
- herbicidal effect [%] (Ranunculus repens; 30 g of active compound/ha): 96%
- herbicidal effect [%] (Rumex acetosa; 30 g of active compound/ha): 28%
- herbicidal effect [%] (Stellaria media; 30 g of active compound/ha): 10%
- herbicidal effect [%] (Taraxacum officinale; [2]): 88%
- herbicidal effect [%] (Trifolium repens; [2]): 13%

SMILES: COC(=O)c1csc(C)c1S(=O)(=O)NC(=O)n1nc(OC)n(C)c1=O [Thiencarbazone-methyl, methyl 4-[(4,5-dihydro-3-methoxy-4-methyl-5-oxo-1H-1,2,4-triazol-1yl)carbonylsulfamoyl]-5-methylthiophene-3-carboxylate]
- herbicidal effect [%] (Achillea millefolium; 20 g of active compound/ha): 25%
- herbicidal effect [%] (Bellis perennis; 20 g of active compound/ha): 28%
- herbicidal effect [%] (Chenopodium album; [3]): 23%
- herbicidal effect [%] (Festuca ovina; [3]): 42%
- herbicidal effect [%] (Lotus corniculatus; 20 g of active compound/ha): 2%
- herbicidal effect [%] (Plantago lanceolata; 20 g of active compound/ha): 67%
- herbicidal effect [%] (Plantago major; [3]): 87%
- herbicidal effect [%] (Ranunculus repens; 20 g of active compound/ha): 97%
- herbicidal effect [%] (Rumex acetosa; 20 g of active compound/ha): 52%
- herbicidal effect [%] (Stellaria media; 20 g of active compound/ha): 53%
- herbicidal effect [%] (Taraxacum officinale; [3]): 38%
- herbicidal effect [%] (Trifolium repens; [3]): 55%

SMILES: COc1nc(C)nc(NC(=O)NS(=O)(=O)c2cc(I)ccc2C(=O)[O-])n1.[Na+] [Iodosulfuron-methyl sodium salt, 4-iodo-2-[(4-methoxy-6-methyl-1,3,5-triazin-2-yl)carbamoylsulfamoyl]benzoate, sodium salt]
- herbicidal effect [%] (Achillea millefolium; 1.25 g of active compound/ha): 5%
- herbicidal effect [%] (Bellis perennis; 1.25 g of active compound/ha): 10%
- herbicidal effect [%] (Chenopodium album; [4]): 0%
- herbicidal effect [%] (Chenopodium album; [5]): 13%
- herbicidal effect [%] (Chenopodium album; [6]): 0%
- herbicidal effect [%] (Chenopodium album; [7]): 10%
- herbicidal effect [%] (Chenopodium album; [8]): 40%
- herbicidal effect [%] (Festuca ovina; [4]): 0%
- herbicidal effect [%] (Festuca ovina; [5]): 0%
- herbicidal effect [%] (Festuca ovina; [6]): 0%
- herbicidal effect [%] (Festuca ovina; [7]): 0%
- herbicidal effect [%] (Festuca ovina; [8]): 6.7%
- herbicidal effect [%] (Lotus corniculatus; 1.25 g of active compound/ha): 0%
- herbicidal effect [%] (Plantago lanceolata; 1.25 g of active compound/ha): 3%
- herbicidal effect [%] (Plantago major; [4]): 0%
- herbicidal effect [%] (Plantago major; [5]): 22%
- herbicidal effect [%] (Plantago major; [6]): 3%
- herbicidal effect [%] (Plantago major; [7]): 30%
- herbicidal effect [%] (Plantago major; [8]): 53.3%
- herbicidal effect [%] (Poa annua; 1 g of active compound/ha): 0%
- herbicidal effect [%] (Poa annua; 1.25 g of active compound/ha): 0%
- herbicidal effect [%] (Poa annua; 2.5 g of active compound/ha): 0%
- herbicidal effect [%] (Poa annua; 10 g of active compound/ha): 0%
- herbicidal effect [%] (Ranunculus repens; 1.25 g of active compound/ha): 73%
- herbicidal effect [%] (Rumex acetosa; 1.25 g of active compound/ha): 12%
- herbicidal effect [%] (Stellaria media; 1.25 g of active compound/ha): 22%
- herbicidal effect [%] (Taraxacum officinale; [4]): 18.3%
- herbicidal effect [%] (Taraxacum officinale; [5]): 50%
- herbicidal effect [%] (Taraxacum officinale; [6]): 18%
- herbicidal effect [%] (Taraxacum officinale; [7]): 42%
- herbicidal effect [%] (Taraxacum officinale; [8]): 85%
- herbicidal effect [%] (Trifolium repens; [4]): 18.3%
- herbicidal effect [%] (Trifolium repens; [5]): 10%
- herbicidal effect [%] (Trifolium repens; [6]): 32%
- herbicidal effect [%] (Trifolium repens; [7]): 45%
- herbicidal effect [%] (Trifolium repens; [8]): 80%

SMILES: COC(=O)c1ccc(CNS(C)(=O)=O)cc1S(=O)(=O)NC(=O)Nc1nc(OC)cc(OC)n1 [Mesosulfuron-methyl, methyl 2-[(4,6-dimethoxypyrimidin-2-ylcarbamoyl)sulfamoyl]-a-(methanesulfonamido)-p-toluate]
- herbicidal effect [%] (Achillea millefolium; 15 g of active compound/ha): 4%
- herbicidal effect [%] (Bellis perennis; 15 g of active compound/ha): 5%
- herbicidal effect [%] (Chenopodium album; [9]): 3%
- herbicidal effect [%] (Festuca ovina; [9]): 0%
- herbicidal effect [%] (Lotus corniculatus; 15 g of active compound/ha): 0%
- herbicidal effect [%] (Plantago lanceolata; 15 g of active compound/ha): 0%
- herbicidal effect [%] (Plantago major; [9]): 0%
- herbicidal effect [%] (Ranunculus repens; 15 g of active compound/ha): 80%
- herbicidal effect [%] (Rumex acetosa; 15 g of active compound/ha): 2%
- herbicidal effect [%] (Stellaria media; 15 g of active compound/ha): 2%
- herbicidal effect [%] (Taraxacum officinale; [9]): 42%
- herbicidal effect [%] (Trifolium repens; [9]): 2%

SMILES: COc1cc(OC)nc(NC(=O)NS(=O)(=O)c2cc(NC=O)ccc2C(=O)N(C)C)n1 [Foramsulfuron, 1-(4,6-dimethoxypyrimidin-2yl)-3-(2-dimethylcarbamoyl-5-formamidophenylsulfonyl)urea]
- herbicidal effect [%] (Achillea millefolium; 45 g of active compound/ha): 17%
- herbicidal effect [%] (Bellis perennis; 45 g of active compound/ha): 13%
- herbicidal effect [%] (Chenopodium album; [10]): 0%
- herbicidal effect [%] (Chenopodium album; [11]): 8%
- herbicidal effect [%] (Chenopodium album; [12]): 13%
- herbicidal effect [%] (Chenopodium album; [13]): 13.3% and 13%
- herbicidal effect [%] (Festuca ovina; [10]): 6.7%
- herbicidal effect [%] (Festuca ovina; [11]): 35%
- herbicidal effect [%] (Festuca ovina; [12]): 53%
- herbicidal effect [%] (Festuca ovina; [13]): 58.3% and 58%
- herbicidal effect [%] (Lotus corniculatus; 45 g of active compound/ha): 0%
- herbicidal effect [%] (Plantago lanceolata; 45 g of active compound/ha): 8%
- herbicidal effect [%] (Plantago major; [10]): 0%
- herbicidal effect [%] (Plantago major; [11]): 47%
- herbicidal effect [%] (Plantago major; [12]): 23%
- herbicidal effect [%] (Plantago major; [13]): 33.3% and 33%
- herbicidal effect [%] (Poa annua; 15 g of active compound/ha): 18.3%
- herbicidal effect [%] (Poa annua; 45 g of active compound/ha): 48%
- herbicidal effect [%] (Poa annua; 60 g of active compound/ha): 73.3% and 73%
- herbicidal effect [%] (Ranunculus repens; 45 g of active compound/ha): 95%
- herbicidal effect [%] (Rumex acetosa; 45 g of active compound/ha): 11%
- herbicidal effect [%] (Stellaria media; 45 g of active compound/ha): 18%
- herbicidal effect [%] (Taraxacum officinale; [10]): 45%
- herbicidal effect [%] (Taraxacum officinale; [11]): 55%
- herbicidal effect [%] (Taraxacum officinale; [12]): 70%
- herbicidal effect [%] (Taraxacum officinale; [13]): 75%
- herbicidal effect [%] (Trifolium repens; [10]): 18.3%
- herbicidal effect [%] (Trifolium repens; [11]): 20%
- herbicidal effect [%] (Trifolium repens; [12]): 53%
- herbicidal effect [%] (Trifolium repens; [13]): 60%

SMILES: CCOc1ccccc1OS(=O)(=O)NC(=O)Nc1nc(OC)cc(OC)n1 [Ethoxysulfuron, 2-ethoxyphenyl[(4,6-dimethoxypyrimidin-2-yl)carbamoyl]sulfamate]
- herbicidal effect [%] (Achillea millefolium; 60 g of active compound/ha): 13%
- herbicidal effect [%] (Bellis perennis; 60 g of active compound/ha): 10%
- herbicidal effect [%] (Chenopodium album; [14]): 5%
- herbicidal effect [%] (Festuca ovina; [14]): 0%
- herbicidal effect [%] (Lotus corniculatus; 60 g of active compound/ha): 0%
- herbicidal effect [%] (Plantago lanceolata; 60 g of active compound/ha): 5%
- herbicidal effect [%] (Plantago major; [14]): 0%
- herbicidal effect [%] (Ranunculus repens; 60 g of active compound/ha): 92%
- herbicidal effect [%] (Rumex acetosa; 60 g of active compound/ha): 25%
- herbicidal effect [%] (Stellaria media; 60 g of active compound/ha): 5%
- herbicidal effect [%] (Taraxacum officinale; [14]): 38%
- herbicidal effect [%] (Trifolium repens; [14]): 47%
